Reference: patent US20250127842A1, “IMMUNE […] THERAPEUTIC NANOPARTICLES” (priority 2021, published 2025)

Tested on: ID8-vegfA-defb29 murine ovarian serous carcinoma cell line
Test: CPMV and CPMV-AUNP therapy in a tumor mouse model (serous ovarian cancer, IP)
Format: in vivo, C57BL/6J mice
Method: FIGS. 3A-3B: (FIG. 3A) Female C57BL/6 mice were inoculated (i.p.) with 2×10^6 ID8-Defb29/Vegf-A cells followed by six weekly injections (i.p.) of PBS control (n=5), 1 μg AUNP (n=3), 100 μg CPMV (n=5), 100 μg CPMV-AUNP (n=7), 100 μg CPMV+1 μg AUNP physical mixture (n=7). Body weight was measured to monitor tumor growth. Data are means±SEM. Data are plotted for a minimum of n=3 per group. (FIG. 3B) Survival curves of the treatment groups.
CPMV and CPMV-AUNP therapy in a tumor mouse model: All animal studies were conducted upon approval and in accordance with the University of California, San Diego Institutional Animal Care and Use Committee (IACUC) guidelines. […] Tumor burden was measured by increase in body weight and data were analyzed and plotted using Graphpad Prism software.
To assay efficacy of the CPMV-AUNP nanoparticle, Applicant used a mouse model of serous ovarian cancer. […] Applicant used luciferase-labeled ID8defb29/vegf cells, allowing us to quantify the disease burden and establishment of disease (data not shown). Imaging is only informative at early time points, before the development of ascites, therefore Applicant used imaging to confirm successful tumor cell injection and tumor formation but then monitored body weight to assess tumor burden and 35 grams body weight was defined as the endpoint for the study. […]

SNTSESFGSGGGSGGC [AUNP, anti-PD-1 peptide SNTSESF (side branch of AUNP-12) with GSGGGSGG linker and carboxy-terminal cysteine, from Genscript]
tumor burden as measured by increase in body weight (1 μg weekly IP, up to day 47 (group removed for non-treatment related reasons)): matched closely the PBS control group
efficacy against disseminated ovarian tumors (survival, tumor burden), in words (weekly IP: 100 μg CPMV or CPMV-AUNP, 1 μg AUNP, or 100 μg CPMV+1 μg AUNP): no apparent effect
